Results reported in ChEMBL document CHEMBL4706632, “Development of Potential Antitumor Agents from the Scaffolds of Plant-Derived Terpenoid Lactones” (J Med Chem, 2020).
Values belong to the compound of their own block, whether it stands above or below them.

Key:
[1] = system: Jurkat; experiment: Cytotoxicity against human Jurkat cells incubated for 72 hrs by MTT assay; format: functional, cell-based
[2] = system: HL-60; experiment: Cytotoxicity against human HL-60 cells incubated for 72 hrs by MTT assay; format: functional, cell-based; details: HL-60, 72 h
[3] = system: CCRF-CEM; experiment: Cytotoxicity against human CEM cells incubated for 72 hrs by MTT assay; format: functional, cell-based
[4] = Inhibition of PAFR in New Zealand rabbit platelets assessed as reduction in PAF-induced platelet aggregation measured within 5 mins by aggregometry analysis; format: tissue-based; details: Oryctolagus cuniculus
[5] = Inhibition of [3H]PAF-acether binding to PAFR in rabbit platelet plasma membranes incubated for 1 hr; format: cell membranes, Oryctolagus cuniculus, Cell membrane
[6] = Antiproliferative activity against human OVCA429 cells incubated for 72 hrs by MTT assay; format: functional, cell-based; details: OVCA429, 72 h
[7] = Suppression of ZEB1 protein level in human T-24 cells incubated for 24 hrs by Western blot analysis; format: functional, cell-based; details: T-24, 24 h
[8] = system: MCF7; experiment: Antiproliferative activity against human MCF7 cells incubated for 48 hrs by SRB assay; format: functional, cell-based; details: MCF7, 48 h
[9] = system: HCT-116; experiment: Cytotoxicity against human HCT-116 cells; format: functional, cell-based
[10] = system: HT-29; experiment: Cytotoxicity against human HT-29 cells incubated for 48 hrs by MTT assay; format: functional, cell-based; details: HT-29, 48 h
[11] = system: HL-60; experiment: Antiproliferative activity against human HL-60 cells; format: functional, cell-based
[12] = system: HL-60; experiment: Antiproliferative activity against human HL-60 cells incubated for 24 hrs by MTT assay; format: functional, cell-based; details: HL-60, 24 h
[13] = system: MDA-MB-231; experiment: Cytotoxicity against human MDA-MB-231 cells incubated for 48 hrs by MTT assay; format: functional, cell-based; details: MDA-MB-231, 48 h
[14] = system: A2058; experiment: Cytotoxicity against human A2058 cells incubated for 48 hrs by MTT assay; format: functional, cell-based; details: A2058, 48 h
[15] = system: P388; experiment: Antiproliferative activity against mouse P388 cells; format: functional, cell-based
[16] = system: SW480; experiment: Antiproliferative activity against human SW480 cells incubated for 72 hrs by MTT assay; format: functional, cell-based; details: SW480, 72 h
[17] = system: MCF7; experiment: Antiproliferative activity against human MCF7 cells incubated for 48 hrs by [3H]-thymidine incorporation assay; format: functional, cell-based
[18] = system: MDA-MB-435; experiment: Antiproliferative activity against human MDA-MB-435 cells incubated for 48 hrs by [3H]-thymidine incorporation assay; format: functional, cell-based
[19] = target: Sarcoplasmic/endoplasmic reticulum calcium ATPase 1 (Oryctolagus cuniculus, UniProt P04191); experiment: Inhibition of rabbit skeletal muscle SERCA1 assessed as reduction in calcium uptake preincubated for 10 mins followed by ATP addition and measured after 4 mins by scintillation liquid method
[20] = system: LNCaP; experiment: Cytotoxicity against human LNCAP cells incubated for 48 hrs clonogenic survival assay; format: functional, cell-based; details: time 48 hrs, read-out: LD50 (the source's name)
[21] = system: MCF7; experiment: Cytotoxicity against human MCF7 cells incubated for 48 hrs by sulforhodamine B staining based ELISA; format: functional, cell-based; details: MCF7, 48 h
[22] = system: EL4; experiment: Cytotoxicity against mouse EL4 cells incubated for 48 hrs by sulforhodamine B staining based ELISA; format: functional, cell-based; details: EL4, 48 h
[23] = system: CCRF S-180; experiment: Cytotoxicity against mouse CCRF S-180 cells incubated for 48 hrs by sulforhodamine B staining based ELISA; format: functional, cell-based; details: CCRF S-180, 48 h
[24] = Cytotoxicity against human TSU-Pr1 cells incubated for 2 hrs; format: functional, cell-based; details: TSU-Pr1, 2 h
[25] = system: HeLa; experiment: Antiproliferative activity against human HeLa cells; format: functional, cell-based
[26] = system: HT-29; experiment: Antiproliferative activity against human HT-29 cells; format: functional, cell-based
[27] = system: UACC-62; experiment: Cytotoxicity against human UACC-62 cells incubated for 48 hrs by sulforhodamine B staining based spectrophotometric assay; format: functional, cell-based; details: UACC-62, 48 h
[28] = system: MCF7; experiment: Cytotoxicity against human MCF7 cells incubated for 48 hrs by sulforhodamine B staining based spectrophotometric assay; format: functional, cell-based; details: MCF7, 48 h
[29] = Cmax in Sprague-Dawley rat at 10 mg/kg, po measured after 0.25 to 72 hrs by LC/QTOF/MS method; format: ADME, organism-based; set-up: route oral, time upper 72 hrs, time lower 0.25 hrs, dose 10 mg/kg; details: in vivo
[30] = system: MCF7; experiment: Antiproliferative activity against human MCF7 cells incubated for 24 hrs by MTT assay; format: functional, cell-based; details: MCF7, 24 h
[31] = system: MDA-MB-231; experiment: Antiproliferative activity against human MDA-MB-231 cells incubated for 24 hrs by MTT assay; format: functional, cell-based; details: MDA-MB-231, 24 h
[32] = Cmax in Sprague-Dawley rat at 10 mg/kg, iv measured after 0.08 to 72 hrs by LC/QTOF/MS method; format: ADME, organism-based; set-up: route intravenous, dose 10 mg/kg, time upper 72 hrs, time lower 0.08 hrs; details: in vivo

Chain of Sarcoplasmic/endoplasmic reticulum calcium ATPase 1 (P04191 whole entry): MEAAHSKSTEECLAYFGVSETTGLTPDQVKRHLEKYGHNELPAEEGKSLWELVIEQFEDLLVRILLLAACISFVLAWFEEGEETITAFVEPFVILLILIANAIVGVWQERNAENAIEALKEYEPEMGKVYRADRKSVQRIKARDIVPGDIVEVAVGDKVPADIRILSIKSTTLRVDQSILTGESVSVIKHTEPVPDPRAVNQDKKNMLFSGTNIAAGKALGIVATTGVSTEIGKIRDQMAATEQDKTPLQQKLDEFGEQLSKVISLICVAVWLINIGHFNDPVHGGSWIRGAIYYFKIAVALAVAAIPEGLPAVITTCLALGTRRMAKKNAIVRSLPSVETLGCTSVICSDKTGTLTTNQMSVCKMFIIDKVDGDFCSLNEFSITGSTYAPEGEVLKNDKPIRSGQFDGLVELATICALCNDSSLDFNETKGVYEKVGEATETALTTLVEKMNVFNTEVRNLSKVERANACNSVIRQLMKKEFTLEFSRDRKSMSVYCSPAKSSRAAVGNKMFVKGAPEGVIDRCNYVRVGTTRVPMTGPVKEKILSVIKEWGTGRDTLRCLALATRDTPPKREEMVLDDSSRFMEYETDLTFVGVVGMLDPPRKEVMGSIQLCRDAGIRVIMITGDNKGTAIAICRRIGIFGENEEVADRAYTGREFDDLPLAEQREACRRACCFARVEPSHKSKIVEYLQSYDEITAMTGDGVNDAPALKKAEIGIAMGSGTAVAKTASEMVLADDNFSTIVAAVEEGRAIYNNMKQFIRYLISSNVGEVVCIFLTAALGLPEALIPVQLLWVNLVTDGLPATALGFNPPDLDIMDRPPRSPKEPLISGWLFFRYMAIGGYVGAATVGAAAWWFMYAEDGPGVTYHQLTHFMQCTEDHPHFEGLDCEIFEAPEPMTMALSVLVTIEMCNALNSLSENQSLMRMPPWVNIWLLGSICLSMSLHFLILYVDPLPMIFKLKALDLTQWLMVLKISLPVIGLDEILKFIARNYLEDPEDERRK

Compound: CC(O)CC(=O)O[C@@]1(C)CO[C@@]2(C1)OC(=O)[C@H]([C@@H]1CC[C@]34C[C@]13C=C[C@@H]1[C@@]3(C)CC=C5C[C@@H](Cc6ccccc6)OC[C@]5(C)[C@@H]3C[C@@H](O)[C@]14C)[C@H]2O (stereo not given in full)
IC50 [1]: 1800 nM | IC50 [2]: 5600 nM | IC50 [3]: 3100 nM

IC50 [4]: 130 nM | IC50 [5]: 250 nM | IC50 [7]: 500 nM
Compound: C[C@@H]1C(=O)O[C@H]2[C@H](O)[C@@]34[C@H]5C[C@@H](C(C)(C)C)[C@]36[C@@H](OC(=O)[C@@H]6O)O[C@@]4(C(=O)O5)[C@@]12O [GINKOLIDE B]
IC50 [6]: > 50000 nM

IC50 [8]: 15000 nM | IC50 [11]: 7000 nM | IC50 [12]: 2400 nM | IC50 [15]: 2900 nM
Compound: C=C1CC[C@@H]2[C@](C)(CO)[C@H](O)CC[C@@]2(C)[C@@H]1C/C=C1/C(=O)OC[C@H]1O [ANDROGRAPHOLIDE]
IC50 [9]: > 40000 nM | IC50 [10]: > 30000 nM | IC50 [13]: > 30000 nM | IC50 [14]: 26000 nM

IC50 [16]: 60000 nM | IC50 [17]: 3200 nM | IC50 [18]: 10000 nM
Compound: CC1(C)OC(=O)C=C[C@]2(C)[C@H]3CC[C@@](C)([C@@H](O[C@H]4O[C@H](CO)[C@@H](O)[C@H](O)[C@H]4O)c4ccoc4)[C@@]4(O[C@@H]4C(=O)O)[C@]3(C)C(=O)C[C@@H]12

Compound: CC(=O)O[C@@]1(C)COC2(C1)OC(=O)[C@H]([C@@H]1CC[C@]34C[C@]13C=C[C@@H]1[C@@]3(C)CC=C5C[C@@H](Cc6ccccc6)OC[C@]5(C)[C@@H]3C[C@@H](O)[C@]14C)[C@H]2O (stereo not given in full)
IC50 [1]: 2700 nM | IC50 [2]: 30000 nM | IC50 [3]: 24000 nM

Compound: C/C=C(/C)C(=O)O[C@H]1C(C)=C2[C@H]([C@@H]1OC(=O)CCCCCCC)[C@@](C)(OC(C)=O)C[C@H](OC(=O)CCC)[C@@]1(O)[C@H]2OC(=O)[C@@]1(C)O [THAPSIGARGIN]
IC50 [19]: 3.9 nM | CC50 [20]: 10 nM | IC50 [21]: 2300 nM | IC50 [22]: 100 nM | IC50 [23]: 30 nM | IC50 [24]: 30 nM

Compound: COC(=O)[C@@]12OC[C@]34[C@H]([C@@H](O)[C@@H]1O)[C@@]1(C)CC(=O)C(O)=C(C)[C@@H]1C[C@H]3OC(=O)[C@H](OC(=O)/C=C(\C)C(C)C)[C@@H]24 [BRUCEANTIN]
IC50 [25]: 29 nM | IC50 [26]: 22 nM

Compound: CC(=O)O[C@H]1C=C2C(=O)C3=C(C)C(=O)O[C@@H]3C[C@H]2[C@]2(C)CCCC(C)(C)[C@@H]12
IC50 [27]: 80 nM | IC50 [28]: 130 nM

IC50 [30]: 4000 nM | IC50 [31]: 6000 nM
Compound: COC(=O)C[C@H]1[C@]2(C)C3=C(C)[C@H](c4ccoc4)C[C@H]3O[C@@H]2[C@@H]2OC(=O)[C@]3(C)C=CC(=O)[C@@]1(C)[C@@H]23 [NIMBOLIDE]
Cmax [29]: 15.3 ng/mL | Cmax [32]: 5560 ng/mL
